Laboratory results: paper PMC11898650, “Morpholine-Substituted Tetrahydroquinoline Derivatives as Potential mTOR Inhibitors: Synthesis, Computational Insights, and Cellular Analysis” (Cancers, 2025)

Legend:
[1] = test system: triple-negative breast cancer (MDA-MB-231) cell line; test: MTT antiproliferative assay, MDA-MB-231; assay type: cell-based, human; details: 48 h; for IC50: Homo sapiens
Protocol: (§1) To evaluate the antiproliferative activity of the synthesized tetrahydroquinoline derivatives, three distinct human cancer cell lines were selected: breast cancer (MCF-7), lung cancer (A-549), and triple-negative breast cancer (MDA-MB-231). Furthermore, the synthesized compounds were tested on the VERO cell line to assess their potential toxicity. The VERO cell line, commonly derived from the kidney of an adult African green monkey, is widely used for toxicity studies. To evaluate the toxicity of the synthesized compounds, this cell line was utilized in the present study. The VERO cells were cultured using […] medium. The F-12 Ham’s medium was used to cultivate the lung cancer (A-549) cell lines. DMEM was used to cultivate the cell lines for breast cancer (MCF-7) and triple-negative breast cancer (MDA-MB-231). Because it feeds the cell line, 5% fatal bovine serum (FBS) was used to make the whole medium. To further protect the cell line from contamination, 0.5% pen–strep (penicillin + streptomycin) was added to all the mediums. All of these cell lines were cultivated in sterile, vented T-75 and/or T-25 flasks that were kept at 37 °C and supplied with 5% CO2. All of the compounds’ stock solutions were prepared in DMSO, and dilutions were made in the appropriate media so that the 96-well plates’ final DMSO content was not greater than 0.1%. First, each drug was tested in triplicate against every cell line at a 25 µM dose. […] On the first day, 1 × 10^4 cells were planted, and 24 h later, the chemicals were added. The MTT dye was added after the compounds and cells had been cultured for 48 h. After four hours, the MTT dye was taken out of the wells. Each well received 100 µL of DMSO to dissolve the formazan crystals that had formed as a result of the living cells, and absorbance at 570 nm was measured.

[2] = test system: lung cancer (A-549) cell line; test: MTT antiproliferative assay, A549; assay type: cell-based, human; details: 48 h; for IC50: Homo sapiens
Protocol: as §1

[3] = test system: breast cancer (MCF-7) cell line; test: MTT antiproliferative assay, MCF-7; assay type: cell-based; details: Homo sapiens, MCF7, 48 h
Protocol: as §1

[4] = test system: VERO cell line; test: MTT toxicity assay, VERO; assay type: cell-based, African green monkey; details: Chlorocebus sabaeus, 48 h, VERO normal cells
Protocol: as §1

[5] = test system: A549 lung cancer cells; test: Annexin V-FITC/PI apoptosis assay by flow cytometry; assay type: cell-based, human; details: 48 h
Protocol: A549 lung cancer cells were seeded in six-well plates and cultured in F-12 Ham’s medium supplemented with 5% FBS, 0.5% penicillin–streptomycin, and maintained in a 5% CO2 atmosphere at 37 °C for 24 h. […] Each condition was maintained in duplicate, with DMSO serving as the vehicle control, while 5-fluorouracil and Everolimus were used as positive controls. The treated cells, along with the DMSO control group, were incubated for 48 h. After incubation, the media were removed, and 1 mL of trypsin was added to each well for approximately one minute, followed by neutralization with 4 mL of fresh medium. Subsequent steps were carried out following the protocol of the Annexin V-FITC apoptosis detection kit (Ref No: BMS500FI, Lot No: 264043; Invitrogen, Waltham, MA, USA). The contents of each well were collected and transferred to centrifuge tubes, followed by centrifugation at 1000 RPM for 8 min. After removing the supernatant, the cell pellets were washed with PBS and subjected to another centrifugation step. The pellets were then resuspended in 1 mL of 1× binding buffer from the Annexin V-FITC apoptosis detection kit and incubated in the dark for 15–20 min. Subsequently, 500 µL of this cell suspension was transferred to individual plastic flow cytometry tubes. Each tube was supplemented with 10 µL of propidium iodide (PI) and 5 µL of Annexin V-FITC conjugate. The tubes were then incubated in the dark for 10 min before analyzing cell apoptosis using flow cytometry.

IC50 [1] | IC50 [2] | IC50 [3] | MDA-MB-231 (IC50 µM) [1] | A549 (IC50 µM) [2] | SMILES | IC50 [4] | apoptosis (early and last phase combined) ([5]; A549, 3 µM) | apoptosis (early and last phase combined) ([5]; A549, 6 µM) | Necrosis ([5]; A549, 3 µM) | Early Apoptosis ([5]; A549, 6 µM) | Late Apoptosis ([5]; A549, 6 µM) | Necrosis ([5]; A549, 6 µM)
0.63 ± 0.02 µM | 0.033 ± 0.003 µM | 2.89 ± 0.013 µM |  |  | O=C(Nc1ccc2c(c1)N(C(=O)N1CCOCC1)CCC2)c1cc(C(F)(F)F)cc(C(F)(F)F)c1 [Compound 10e, N-(1-(Morpholine-4-carbonyl)-1,2,3,4-tetrahydroquinolin-7-yl)-3,5-bis(trifluoromethyl)benzamide] | 8.86 ± 0.03 µM | 75.7% |  | 0.05% | 70.00% | 20.37% | 0.01%
> 25 µM | > 25 µM | 4.47 ± 0.013 µM | no activity | no activity | O=C(Nc1ccc2c(c1)N(C(=O)N1CCCCC1)CCC2)c1cc(F)cc(F)c1 [Compound 10f, 3,5-Difluoro-N-(1-(piperidine-1-carbonyl)-1,2,3,4-tetrahydroquinolin-7-yl)benzamide] | > 25 µM |  |  |  |  |  | 
> 25 µM | 0.68 ± 0.13 µM | 2.5 ± 0.16 µM |  |  | O=C(Nc1ccc2c(c1)N(C(=O)N1CCCCC1)CCC2)c1cc(F)cc(C(F)(F)F)c1 [Compound 10g, 3-Fluoro-N-(1-(piperidine-1-carbonyl)-1,2,3,4-tetrahydroquinolin-7-yl)-5-(trifluoromethyl)benzamide] | > 25 µM |  |  |  |  |  | 
1.29 ± 0.032 µM | 3.36 ± 0.71 µM | 0.087 ± 0.007 µM |  |  | O=C(Nc1ccc2c(c1)N(C(=O)N1CCCCC1)CCC2)c1cc(C(F)(F)F)cc(C(F)(F)F)c1 [Compound 10h, N-(1-(Piperidine-1-carbonyl)-1,2,3,4-tetrahydroquinolin-7-yl)-3,5 bis(trifluoromethyl)benzamide] | > 25 µM |  |  |  |  |  | 
7.76 ± 0.37 µM | 0.09 ± 0.01 µM | 5.86 ± 0.07 µM |  |  | CO[C@H]1C[C@@H]2CC[C@@H](C)[C@@](O)(O2)C(=O)C(=O)N2CCCC[C@H]2C(=O)O[C@H]([C@H](C)C[C@@H]2CC[C@@H](OCCO)[C@H](OC)C2)CC(=O)[C@H](C)/C=C(\C)[C@@H](O)[C@@H](OC)C(=O)[C@H](C)C[C@H](C)/C=C/C=C/C=C/1C [Everolimus, reference compound] | > 25 µM |  |  |  |  |  | 

Continued, molecule first:

SMILES | IC50 [1] | IC50 [2] | IC50 [3] | MDA-MB-231 (IC50 µM) [1] | A549 (IC50 µM) [2] | IC50 [4] | apoptosis (early and last phase combined) ([5]; A549, 3 µM) | apoptosis (early and last phase combined) ([5]; A549, 6 µM) | Necrosis ([5]; A549, 3 µM) | Early Apoptosis ([5]; A549, 6 µM) | Late Apoptosis ([5]; A549, 6 µM) | Necrosis ([5]; A549, 6 µM)
O=c1[nH]cc(F)c(=O)[nH]1 [Compound 5-FU, 5-fluorouracil, reference compound] | 3.39 ± 0.37 µM | 0.28 ± 0.008 µM | 0.72 ± 0.03 µM |  |  | > 25 µM |  |  |  |  |  | 
O=C(Nc1ccc2c(c1)N(C(=O)C1CCOCC1)CCC2)c1ccc(OC(F)(F)F)cc1 [Compound 10a, N-(1-(Tetrahydro-2H-pyran-4-carbonyl)-1,2,3,4-tetrahydroquinolin-7-yl)-4-(trifluoromethoxy)benzamide] | 8.16 ± 0.33 µM | 1.06 ± 0.02 µM | 4.34 ± 0.12 µM |  |  | > 25 µM |  |  |  |  |  | 
O=C(Nc1ccc2c(c1)N(C(=O)C1CCCCC1)CCC2)c1ccc(OC(F)(F)F)cc1 [Compound 10b, N-(1-(Cyclohexanecarbonyl)-1,2,3,4-tetrahydroquinolin-7-yl)-4-(trifluoromethoxy)benzamide] | 6.37 ± 0.19 µM | 4.72 ± 0.11 µM | > 25 µM |  |  | 9.82 ± 0.08 µM |  |  |  |  |  | 
O=C(Nc1ccc2c(c1)N(C(=O)N1CCOCC1)CCC2)c1cc(F)cc(C(F)(F)F)c1 [Compound 10d, 3-Fluoro-N-(1-(morpholine-4-carbonyl)-1,2,3,4-tetrahydroquinolin-7-yl)-5-(trifluoromethyl)benzamide] | 1.003 ± 0.008 µM | 0.062 ± 0.01 µM | 0.58 ± 0.11 µM |  |  | > 25 µM | 29.35% | 77.66% |  |  |  | 
